Assay: Olopatadine-PDE4 Inhibitor Solubility Study
Format: physicochemical
Conditions: for effect on the aqueous solubility of olopatadine: 0.1-1% PDE4 inhibitor, FIGS. 1 and 2; for ratio of solubility enhancement: molecules of Compound per olopatadine molecule, straight line fit
Protocol: The following experiments were conducted to determine the effect of compounds of Formula I on the aqueous solubility of olopatadine.
Formulations with the compositions shown in Table 1 were prepared for olopatadine solubility testing as follows: ten milliliter samples of the formulations containing either 0%, 0.1%, 0.3%, or 1% of either Compound 1 (4-(3,5-Dichloropyridin-4-ylamino)-7-methoxy-8-(6-(4-methylpiperazin-1-yl)hexyloxy)quinolin-2(1H)-one) or Compound 2 (4-(3,5-Dichloropyridin-4-ylamino)-7-methoxy-8-(6-morpholinohexyloxy)quinolin-2(1H)-one) with at least 1% Olopatadine Hydrochloride as shown in Table 2 were prepared and adjusted to the target pH. […] The samples were mixed on a rocker and the pH was readjusted to the target pH after one and six days of mixing. On day seven, the samples were filtered through an Acrodisc 25 mm GXF/GHP 0.2 micron filter. The first three milliliters of filtrate were collected for final pH measurement and the next 3 milliliters of filtrate were filled into two 1.5 mL HPLC vials for the olopatadine assay (as free base) as shown below. Compound 1 was not assayed in samples A through H as an assay method was not available. Duplicate Compound 1/Olopatadine samples for the olopatadine assay were injected neat into the HPLC. Compound 2 and olopatadine were assayed in samples I, J, and K. Single Compound 2/Olopatadine samples were diluted 1/10 with 50/50 Acetonitrile/Water and injected into the UPLC.
The final pH of the filtered samples was measured with an Orion 525A+pH meter using a Ross Semimicro combination pH electrode and automatic temperature probe.
The Compound 1 and Olopatadine HPLC assay was conducted using the following conditions: • Instrument: Waters 2695 Separation Module and Waters 2487 • Variable Wavelength Ultraviolet-Visible Detector with Empower Software • Column: Phenomenex Ultracarb C8, 5 micron, 150×4.6 mm • Mobile Phase: • Solvent A=Acetonitrile • Solvent B=100 milliMolar Potassium Phosphate with 0.1% Triethylamine adjusted to pH 3.0 with NaOH/HC1 • Flowrate=1 milliliter/Minute • Gradient:
• Detection: 299 nm Ultraviolet Absorbance • Injection Volume: 20 microliters • Olopatadine Retention Time: About 6.2 minutes
The Compound 2 and Olopatadine UPLC assay was conducted using the following conditions: • Instrument: Waters ACQUITY UPLC System with TUV Detector and Empower Software • Column: Acquity UPLC BEH Shield C18, 1.7 micron, 100×2.1 mm • Mobile Phase: • Solvent A=0.1% Phosphoric Acid adjusted to pH 3.0 with NaOH/HCl • Solvent B=Acetonitrile • Flowrate=0.3 milliliter/Minute • Gradient:
• Detection: 285 nm Ultraviolet Absorbance • Injection Volume: 3 microliters • AL-53817 Retention Time: About 4.1 minutes • Olopatadine Retention Time: About 4.5 minutes
The target pH of samples E through K was 5.2 and the pH readings of the suspensions were close to this value prior to filtration. However, after filtration the solution pH was generally about 0.2 pH units higher than the suspension pH. This pH shift is commonly observed when measuring the pH of a suspension versus a solution. Duplicate samples of A through H were assayed and the duplicate values were averaged.
The milliMolar (mM) concentrations were calculated by dividing the % w/v concentrations by the molecular weight and multiplying by 10000.

Structure (SMILES) | effect on the aqueous solubility of olopatadine | ratio of solubility enhancement | solubility of the PDE4 inhibitor in the formulation (pH 7.4)
COc1ccc2c(Nc3c(Cl)cncc3Cl)cc(=O)[nH]c2c1OCCCCCCN1CCN(C)CC1 [Compound 1, 4-(3,5-Dichloropyridin-4-ylamino)-7-methoxy-8-(6-(4-methylpiperazin-1-yl)hexyloxy)quinolin-2(1H)-one] | increased the aqueous solubility of olopatadine in a linear concentration dependent manner | about two molecules of the Compounds to one olopatadine molecule | 
COc1ccc2c(Nc3c(Cl)cncc3Cl)cc(=O)[nH]c2c1OCCCCCCN1CCOCC1 [Compound 2, 4-(3,5-Dichloropyridin-4-ylamino)-7-methoxy-8-(6-morpholinohexyloxy)quinolin-2(1H)-one] | increased the aqueous solubility of olopatadine in a linear concentration dependent manner | about two molecules of the Compounds to one olopatadine molecule | not sufficiently soluble

From patent US20140107121A1, “OLOPATADINE COMPOSITIONS AND USES THEREOF” (Alcon Research, Ltd., priority 2009, published 2014)
